Data as given in patent publication US20100151508A1, “COMPOUNDS” (THE ROBERT GORDON UNIVERSITY, priority 2006, published 2010).

Legend:
[1] = In vitro oxidation of KB861 solutions, analysed by fluorimetry; format: physicochemical
Protocol: A series of K5861 solutions (0.5, 1.0, and 1.5 μM) were prepared using THF. […] Another series of KB861 solutions of the same concentrations were prepared and analysed by fluorimetry in their natural unoxidised state (Graph 1).

Caco-2 cells [2] = assay: Probe fluorescence in Caco-2 cells after glutathione depletion by BSO; format: cell-based, human; conditions: Caco-2, glutathione depleted by progressive BSO exposure
From the text: To examine probe sensitivity to a less severe, more gradually provoked physiological oxidative stress within Caco-2 cells, cellular glutathione was depleted by progressive buthionine sulphoximine (BSO) exposure.

Caco-2 cells [3] = assay: Probe fluorescence in menadione stressed versus healthy Caco-2 cells (fluorescence microscopy); format: cell-based, human; conditions: for Effect of menadione concentration on intracellular fluorescence: Caco-2, 1, 10 and 20 μM menadione; for Decrease in fluorescence in stressed cells compared to healthy cells: confluent Caco-2, menadione stress, 20 μM probe; for Fluorescence in menadione exposed cultures relative to control non-stressed cultures: pre-confluent, proliferating Caco-2 cultures
Protocol: Initially, confluent Caco-2 cells were placed under stress using menadione then incubated with 20 μM KB861 for 30 minutes. The fluorescence of KB861 in stressed cells was then compared to that of KB861 in healthy cells using fluorescence microscopy (FIG. 5).
Confluent Caco-2 cells were placed under stress using Menadione then incubated with 20 μM KB474 for 1 minute (FIG. 6) and 15 minutes (FIG. 7). The fluorescence of the compound in the stressed cells was then compared to its fluorescence in healthy Caco-2 cells.
Pre-confluent, proliferating Caco-2 cultures were also exposed to menadione prior to staining with KB861 or KB474.
The effect of menadione concentration on the intracellular fluorescence of compound KB861 and KB474 was also investigated.

[4] = Fluorescence emission of myricetin derivatives (fluorimetry); format: physicochemical; conditions: 2.5 μM in ethanol (KB861 in THF); for λmax (nm): fluorescence emission
Protocol: All the KBX compounds and Myricetin were prepared for analysis of their fluorescent properties (Table 1) using ethanol as the solvent, with the exception of KB861 which used tetrahydrofuran (THF). All measurements were taken at a compound concentration of 2.5 μM.

| Structure (SMILES) | Fluorescence emission at 540 nm, natural unoxidised state ([1]; 0.5, 1.0, 1.5 μM in THF) | Fluorescence emission at 540 nm after oxidation ([1]; 0.5, 1.0, 1.5 μM in THF, oxidised by excess AgO) | Fluorescence on exposure to hydrogen peroxide ([1]; hydrogen peroxide as stated) | Emission intensity [4] | λmax (nm) [4] [nm] | Fluorescence emission after BSO exposure (Caco-2 cells [2]) | Effect of menadione concentration on intracellular fluorescence (Caco-2 cells [3]) | Decrease in fluorescence in stressed cells compared to healthy cells (Caco-2 cells [3]; 30 minutes) | Fluorescence in menadione exposed cultures relative to control non-stressed cultures (Caco-2 cells [3]) | Decrease in fluorescence in stressed cells compared to healthy cells (Caco-2 cells [3]; 1 minute and 15 minutes) |
| --- | --- | --- | --- | --- | --- | --- | --- | --- | --- | --- |
| CCCCCCCCCCc1ccc2c(=O)c(O)c(-c3cc(O)c(O)c(O)c3)oc2c1 [KB861, 7-decyl-3-hydroxy-2-(3,4,5-trihydroxyphenyl)-4H-1-benzopyran-4-one] | highly fluorescent | almost completely disappears | diminished | 664.669 | 544.7 | striking decrease | correlated with the concentration of menadione exposure | 30-40% | dramatically decreased | – |
| CCc1ccc2c(=O)c(O)c(-c3cc(O)c(O)c(O)c3)oc2c1 [KB474, 7-ethyl-3-hydroxy-2-(3,4,5-trihydroxyphenyl)-4H-1-benzopyran-4-one] | – | – | – | 321.113 | 504.9 | striking decrease | dose dependent decrease | – | dramatically decreased | at least 75% |
| CCCCCCCCCCc1ccc2c(=O)c(O)c(-c3cc(O)c(O)cc3O)oc2c1 [AOX166] | – | – | – | 0.286 | 514.1 | – | – | – | – | – |
| O=c1c(O)c(-c2cc(O)c(O)c(O)c2)oc2cc(O)cc(O)c12 [Myricetin, 3,5,7-trihydroxy-2-(3,4,5-trihydroxyphenyl)-4H-1-benzopyran-4-one, reference compound] | – | – | – | 17.419 | 499.5 | – | – | – | – | – |

Further lines, with some results ahead:

| Fluorescence emission at 540 nm, natural unoxidised state ([1]; 0.5, 1.0, 1.5 μM in THF) | Fluorescence emission at 540 nm after oxidation ([1]; 0.5, 1.0, 1.5 μM in THF, oxidised by excess AgO) | Fluorescence on exposure to hydrogen peroxide ([1]; hydrogen peroxide as stated) | Emission intensity [4] | λmax (nm) [4] [nm] | Structure (SMILES) | Fluorescence emission after BSO exposure (Caco-2 cells [2]) | Effect of menadione concentration on intracellular fluorescence (Caco-2 cells [3]) | Decrease in fluorescence in stressed cells compared to healthy cells (Caco-2 cells [3]; 30 minutes) | Fluorescence in menadione exposed cultures relative to control non-stressed cultures (Caco-2 cells [3]) | Decrease in fluorescence in stressed cells compared to healthy cells (Caco-2 cells [3]; 1 minute and 15 minutes) |
| --- | --- | --- | --- | --- | --- | --- | --- | --- | --- | --- |
| – | – | – | 0.199 | 517.0 | O=c1c(O)c(-c2cc(O)c(O)cc2O)oc2ccccc12 [AOX563] | – | – | – | – | – |
| – | – | – | 0.166 | 457.1 | O=c1c(O)c(-c2ccc(O)c(O)c2O)oc2ccccc12 [AOX558] | – | – | – | – | – |
